The target of one test is human P2X4 receptor (Homo sapiens (Human), UniProt Q99571). Briefly: P2X4 receptor antagonist activity (ATP-induced intracellular calcium, Fura-2 AM). Format: cell-based. The following applies: 1321N1 cells stably expressing human P2X4 receptor; test substance 15 minutes before addition of ATP; Fura-2 AM F340/F380; read-out: Inhibitory activity IC50. The procedure: The ATP receptor (human P2X4) was introduced into the 1321N1 cells, and the cells were used as a stable ATP receptor expression system. The P2X4-expressing 1321N1 cells were seeded on a 96-well plate, cultured under the conditions of 37° C. and 5% CO2 for 24 hours, and used for calcium measurement. […] For the measurement, a microplate reader, Fluostar Optima (BMG Labtech), was used. The light emitted from a xenon lamp was passed through 340 nm and 380 nm filters, respectively, and irradiated on the cells, fluorescences of 510 nm, F340 and F380, emitted from the cells were measured, and change of the ratio F340/F380 was used as an index of change of intracellular calcium level. The measurement was performed by adding ATP to each well at a final concentration of 1 μM, and observing the ATP-induced Ca^2+ response over time.
human P2X4 receptor, sequence (Q99571 whole entry): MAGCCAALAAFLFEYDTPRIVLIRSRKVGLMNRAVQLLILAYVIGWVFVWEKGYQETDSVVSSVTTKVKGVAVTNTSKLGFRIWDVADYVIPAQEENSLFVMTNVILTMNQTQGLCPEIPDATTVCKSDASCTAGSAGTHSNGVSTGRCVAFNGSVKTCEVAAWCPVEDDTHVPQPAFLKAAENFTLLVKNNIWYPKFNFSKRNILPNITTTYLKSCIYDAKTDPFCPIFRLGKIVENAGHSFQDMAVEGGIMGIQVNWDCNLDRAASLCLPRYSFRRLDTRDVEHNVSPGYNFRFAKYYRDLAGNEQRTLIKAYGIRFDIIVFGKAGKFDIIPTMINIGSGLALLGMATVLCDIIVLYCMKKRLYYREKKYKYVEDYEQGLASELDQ
The 1321N1 cells stably expressing human P2X4 receptor were seeded on a 96-well plate, cultured under the conditions of 37° C. and 5% CO2 for 24 hours, and then used for intracellular calcium measurement. Fura-2 AM, which is a calcium fluorescent indicator, was used for the intracellular calcium measurement. […] The ratio of fluorescence values obtained with excitation lights of 340 nm and 380 nm was used as an index of the change of intracellular calcium level, and the inhibitory activity of the test substance was calculated on the basis of the comparison with the value obtained in the absence of the test substance (control).

For test [1], the system named is mouse neuropathic pain model. Briefly: Analgesic activity in mouse neuropathic pain model (von Frey filament test). Format: in vivo. Conditions: for pain threshold of diseased limb (von Frey filament test): oral administration of 30 mg/kg, neuropathic pain model mice, versus vehicle administration group; for analgesic activity: oral administration, mouse neuropathic pain model (FIG. 1). On the procedure: Mouse neuropathic pain model was prepared according to the method of Tozaki-Saitoh H. et al. (Tozaki-Saitoh H., Tsuda M., Miyata H., Ueda K., Kohsaka S. and Inoue K.; P2Y12 Receptors in Spinal Microglia Are Required for Neuropathic Pain after Peripheral Nerve Injury. Neuroscience, 28(19): 4949-4956 (2008)). Under isoflurane anesthesia, back hair of mice was extensively shaved, the shaved parts were wiped with rubbing alcohol, and the mice were fixed in the prone position on a heating pad. The skins were cut and opened along the dorsal median line on the upper and lower sides of the head end of the sacroiliac bone in a length of about 1 cm each, with confirming the head end of the bone with fingers. The left lateral paravertebral muscle was separated in the sacral region, and then the ligament was separated. The sacroiliae rim and the upper part thereof were cut and opened along the pyramid, and the transverse process of the first sacral vertebra (S1) was confirmed. The transverse process of S1 was removed, the fourth lumber nerve (L4) running just under the transverse process was confirmed and cut, and the operative wound was sutured.
The pain threshold (paw withdrawal threshold (g)) was measured by stimulating the soles of mice with each of seven von Frey filaments (Stoelting Co., TOUCH-TEST SENSORY EVALUATOR) that gave different stimulation strengths, and determining presence or absence of withdrawal response. The 50% threshold was calculated according to the up down method with reference to the method of Chaplan et al. (Chaplan S R, Bach F W, Pogrel J W, Chung J M, Yaksh T L: Quantitative assessment of tactile allodynia in the rat paw, J. Neurosci. Method, 53:55-63 (1994)).
For evaluation of efficacy, each of the compounds described in Examples 21 and 42 was orally administered to the neuropathic pain model mice with a sonde for oral administration in mice, and effect thereof on the pain threshold measured in the von Frey filament test was observed.

A word on the IC50: it is the concentration at which inhibition is half-maximal.

Counter-ions that a name gives are not always drawn.

Regarding `COc1cccc(CCc2nccn2-c2ccc(N3C(=O)CC(=O)Nc4c3ccc3ccccc43)cc2)c1.Cl` [Example 42, 5-[4-[2-(3-Methoxyphenethyl)-1H-imidazol-1-yl]phenyl]-1H-naphtho[1,2-b][1,4]diazepine-2,4(3H,5H)-dione hydrochloride], the IC50 at human P2X4 receptor was 92 nM. For the same molecule, in test [1], the “pain threshold of diseased limb (von Frey filament test)” value is listed as “increased the pain threshold of diseased limb” and the analgesic activity entry is on record as “superior analgesic activity”.

As for `O=C1CC(=O)N(c2ccc(-n3ccnc3CNc3ccccc3)cc2)c2ccc3ccccc3c2N1` [Example 80, 5-[4-[2-[(Phenylamino)methyl]-1H-imidazol-1-yl]phenyl]-1H-naphtho[1,2-b][1,4]diazepine-2,4(3H,5H)-dione], the IC50 on human P2X4 receptor is 1300 nM.

`O=C1CC(=O)N(c2ccc(-c3nccn3CCc3cccc(O)c3)cc2)c2ccc3ccccc3c2N1` [Example 27, 5-[4-[1-(3-Hydroxyphenethyl)-1H-imidazol-2-yl]phenyl]-1H-naphtho[1,2-b][1,4]diazepine-2,4(3H,5H)-dione]: the IC50 on human P2X4 receptor turned out to be 78 nM.

As to “5-[4-[(5-Phenylethyl)-1H-imidazol-4-yl]phenyl]-1H-naphtho[1,2-b][1,4]diazepine-2,4(3H,5H)-dione hydrochloride [Example 73]”, the IC50 on human P2X4 receptor was 320 nM.

With `O=C1CC(=O)N(c2ccc(-n3ccnc3-c3ccccc3)cc2)c2ccc3ccccc3c2N1` [Example 50, 5-[4-(2-Phenyl-1H-imidazol-1-yl)phenyl]-1H-naphtho[1,2-b][1,4]diazepine-2,4(3H,5H)-dione], the IC50 at human P2X4 receptor is 3700 nM.

For `COc1ccccc1Cc1nnnn1-c1ccc(N2C(=O)CC(=O)Nc3c2ccc2ccccc32)cc1` [Example 1, 5-[4-[5-(2-Methoxybenzyl)-1H-tetrazol-1-yl]phenyl]-1H-naphtho[1,2-b][1,4]diazepine-2,4(3H,5H)-dione], on human P2X4 receptor, the IC50 was determined as 25 nM.

With `Cc1cccc(C)c1CCc1nccn1-c1ccc(N2C(=O)CC(=O)Nc3c2ccc2ccccc32)cc1` [Example 37, 5-[4-[2-(2,6-Dimethylphenylethyl)-1H-imidazol-1-yl]phenyl]-1H-naphtho[1,2-b][1,4]diazepine-2,4(3H,5H)-dione hydrochloride], the IC50 at human P2X4 receptor is 79 nM.

For `O=C1CC(=O)N(c2ccc(-c3nccn3CCc3ccccc3)c(O)c2)c2ccc3ccccc3c2N1` [Example 65, 5-[3-Hydroxy-4-(1-phenethyl-1H-imidazol-2-yl)-phenyl]-1H-naphtho[1,2-b][1,4]diazepine-2,4(3H,5H)-dione], the IC50 on human P2X4 receptor amounted to 130 nM.

On to `COc1cc(N2C(=O)CC(=O)Nc3c2ccc2ccccc32)ccc1-c1nccn1CCc1ccccc1` [Example 64, 5-[3-Methoxy-4-(1-phenethyl-1H-imidazol-2-yl)-phenyl]-1H-naphtho[1,2-b][1,4]diazepine-2,4(3H,5H)-dione], for which the IC50 at human P2X4 receptor was determined as 520 nM.

`COc1ccccc1CCc1nccn1-c1ccc(N2C(=O)CC(=O)Nc3c2ccc2ccccc32)cc1` [Example 32, 5-[4-[(2-(2-Methoxyphenyl)ethyl)-1H-imidazol-1-yl]phenyl]-1H-naphtho[1,2-b][1,4]diazepine-2,4(3H,5H)-dione hydrochloride]: the IC50 on human P2X4 receptor turned out to be 180 nM.

Take `O=C1CC(=O)N(c2ccc(-n3ccnc3CCc3cccc(C(F)(F)F)c3)cc2)c2ccc3ccccc3c2N1` [Example 38, 5-[4-[2-[3-(Trifluoromethyl)phenylethyl]-1H-imidazol-1-yl]phenyl]-1H-naphtho[1,2-b][1,4]diazepine-2,4(3H,5H)-dione hydrochloride]: the IC50 on human P2X4 receptor amounted to 550 nM.

In the case of `O=C1CC(=O)N(c2ccc(-n3ccnc3CCc3cccc(F)c3)cc2)c2ccc3ccccc3c2N1` [Example 31, 5-[4-[(2-(3-Fluorophenyl)ethyl)-1H-imidazol-1-yl]phenyl]-1H-naphtho[1,2-b][1,4]diazepine-2,4(3H,5H)-dione hydrochloride], the IC50 at human P2X4 receptor was determined as 51 nM.

As for `CN(C)c1ccccc1Cc1nnnn1-c1ccc(N2C(=O)CC(=O)Nc3c2ccc2ccccc32)cc1` [Example 47, 5-[4-[5-[2-(Dimethylamino)benzyl]-1H-tetrazol-1-yl]phenyl]-1H-naphtho[1,2-b][1,4]diazepine-2,4(3H,5H)-dione mesylate], the IC50 at human P2X4 receptor was found to be 94 nM.

Turning to `COc1cccc(CCc2nccn2-c2ccc(N3C(=O)CC(=O)Nc4c3ccc3c4CCC3)cc2)c1` [Example 61, 5-[4-[2-(3-Methoxyphenethyl)-1H-imidazol-1-yl]phenyl]-5,8,9,10-tetrahydroindeno[4,5-b][1,4]diazepine-2,4(1H,3H)-dione hydrochloride], the half-maximal inhibitory concentration (IC50) on human P2X4 receptor came to 74 nM.

As for `Cl.O=C1CC(=O)N(c2ccc(-n3ccnc3CCc3ccccc3)cc2)c2ccc3ccccc3c2N1` [Example 21, 5-[4-(2-Phenethyl-1H-imidazol-1-yl)phenyl]-1H-naphtho[1,2-b][1,4]diazepine-2,4(3H,5H)-dione hydrochloride], the IC50 at human P2X4 receptor was determined as 78 nM. Also, in test [1], the “pain threshold of diseased limb (von Frey filament test)” value is listed as “increased the pain threshold of diseased limb” and the analgesic activity result is reported as “superior analgesic activity”.

Turning to `COc1ccccc1Cc1nnnn1-c1ccc(C2=NCC(=O)Nc3c2ccc2ccccc32)cc1` [Example 19, 5-[4-[5-(2-Methoxybenzyl)-1H-tetrazol-1-yl]phenyl]-1H-naphtho[1,2-e][1,4]diazepin-2(3H)-one], the 50% inhibitory concentration (IC50) on human P2X4 receptor worked out at 320 nM.

`O=C1CC(=O)N(c2ccc(-n3ccnc3COc3ccccc3)cc2)c2ccc3ccccc3c2N1` [Example 68, 5-[4-[2-(Phenoxymethyl)-1H-imidazol-1-yl]phenyl]-1H-naphtho[1,2-b][1,4]diazepine-2,4(3H,5H)-dione]: the half-inhibitory concentration (IC50) on human P2X4 receptor was determined as 790 nM.

As to `O=C1CC(=O)N(c2ccc(-n3nnnc3CCc3ccccc3)cc2)c2ccc3ccccc3c2N1` [Example 4, 5-[4-(5-Phenethyl-1H-tetrazol-1-yl)phenyl]-1H-naphtho[1,2-b][1,4]diazepine-2,4(3H,5H)-dione], at human P2X4 receptor, the IC50 came out at 44 nM.

With `O=C1CC(=O)N(c2ccc(-c3nccn3Cc3ccc(Cl)cc3)cc2)c2ccc3ccccc3c2N1` [Example 23, 5-[4-[1-(4-Chlorobenzyl)-1H-imidazol-2-yl]phenyl]-1H-naphtho[1,2-b][1,4]diazepine-2,4(3H,5H)-dione hydrochloride], the IC50 at human P2X4 receptor was found to be 300 nM.

Source of the values: patent US9873683B2, “P2X4 receptor antagonist” (NIPPON CHEMIPHAR CO., LTD., priority 2013, dated 2018).
